Laboratory results: patent US5504105A, “Pharmaceutical compositions containing ipriflavone, process for the preparation thereof and relative therapeutic use” (priority 1990, dated 1996)

How the values were obtained:
[1] = In-vivo bioavailability test: urinary excretion, capsules vs tablets, 8 healthy adult volunteers; parameters: species or system healthy adult volunteers (human); conditions: first study
Experimental: Concomitant drug treatment was avoided.
Urine was collected over the 24 hour period before treatment and on the tenth and eleventh days over the periods 0-24 hours and 24-48 hours after the assumption of the last dose. A homogenous sample (10 ml approx.) was prepared from the total urine excreted on the tenth and eleventh days; this sample was then stored at -20° C. until analised by HPLC.
The pharmacokinetic data were compared with those obtained administering an equivalent dose of ipriflavone in the standard formulation of 200 mg tablets three times daily (total dose 600 mg) according to an analogous study protocol.

[2] = human, in vivo
Experimental: (§1) In this comparative study all the conditions that could influence in some measure the bioavailability behaviour such as meals, drug administration or samples collection were strictly standardized.
(§2) The study was carried out in twelve young healthy volunteers in good health.
(§3) All the subjects were on a standard diet for all the period of the study.
(§4) For each treatment, after an overnight fast, each subject received at 8:00 a.m. on Day 1 the first oral dosing. From Day 1 to Day 10 the daily doses were administered during the meals. The two different treatments (A and B) were the following:
(§5) Treatment A: one 200 mg Ipriflavone Tablet 3 times daily at 8:00 a.m. , 1:00 p.m. and 8:00 p.m.;
(§6) Treatment B: one 300 mg Ipriflavone Scherer capsule two times daily at 8:00 a.m. and 8:00 p.m.

[3] = Further comparative bioavailability study: urinary excretion, treatments A and B, twelve healthy volunteers; type: in vivo, young healthy volunteers (human); conditions: each treatment, second study
Experimental: as §1, §2, §3, §4, §5, §6

[4] = in vivo; cited from earlier work
[5] = cited from earlier work

unchanged ipriflavone in urine [1]: no detectable levels | mean increment in bioavailability [2]: 35%
SMILES: CC(C)Oc1ccc2c(=O)c(-c3ccccc3)coc2c1 [Ipriflavone]
plasma levels / metabolization in man [2]: could not be quantified in several subjects | unchanged ipriflavone in urine [3]: no unchanged ipriflavone levels were found | effectiveness in osteoporosis [4]: effective in preventing and treating post-menopausal and senile osteoporosis | half-life ([5]; human, in vivo, po): 9.8 h | peak plasma concentration of the unchanged drug ([5]; human, in vivo, po): 170 ng/mL | time to peak plasma concentration after administration ([5]; human, in vivo, po): 1.3 h | absorption and metabolism in man ([5]; oral, man): absorbed rapidly and, furtherly, extensively metabolised equally rapidly
